Laboratory results: patent US9341616B2, “Sweet taste receptor chimeric proteins and use thereof” (AJINOMOTO CO., INC., priority 2014, dated 2016)
Residues, ends and D or L forms follow the SMILES beside them.

Legend:
[1] = biological target: T1, hT1R2/hT1R3 (Homo sapiens, UniProt Q7RTX0+Q8TE23, C757R); test: Intracellular calcium assay (ΔF/F, S/N ratio) in HEK293E cells expressing hT1R2 and hT1R3 with Gα15-trans48LD; assay type: cell-based;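 also: fluorescence read over 120 s after adding sweet stimulant across several concentrations, S/N taken as highest over lowest ΔF/F, higher meaning more sensitive detection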
T1 construct: expressed in transfected cells; host or cells: HEK293E
T1 sequence (Q8TE23 20-839): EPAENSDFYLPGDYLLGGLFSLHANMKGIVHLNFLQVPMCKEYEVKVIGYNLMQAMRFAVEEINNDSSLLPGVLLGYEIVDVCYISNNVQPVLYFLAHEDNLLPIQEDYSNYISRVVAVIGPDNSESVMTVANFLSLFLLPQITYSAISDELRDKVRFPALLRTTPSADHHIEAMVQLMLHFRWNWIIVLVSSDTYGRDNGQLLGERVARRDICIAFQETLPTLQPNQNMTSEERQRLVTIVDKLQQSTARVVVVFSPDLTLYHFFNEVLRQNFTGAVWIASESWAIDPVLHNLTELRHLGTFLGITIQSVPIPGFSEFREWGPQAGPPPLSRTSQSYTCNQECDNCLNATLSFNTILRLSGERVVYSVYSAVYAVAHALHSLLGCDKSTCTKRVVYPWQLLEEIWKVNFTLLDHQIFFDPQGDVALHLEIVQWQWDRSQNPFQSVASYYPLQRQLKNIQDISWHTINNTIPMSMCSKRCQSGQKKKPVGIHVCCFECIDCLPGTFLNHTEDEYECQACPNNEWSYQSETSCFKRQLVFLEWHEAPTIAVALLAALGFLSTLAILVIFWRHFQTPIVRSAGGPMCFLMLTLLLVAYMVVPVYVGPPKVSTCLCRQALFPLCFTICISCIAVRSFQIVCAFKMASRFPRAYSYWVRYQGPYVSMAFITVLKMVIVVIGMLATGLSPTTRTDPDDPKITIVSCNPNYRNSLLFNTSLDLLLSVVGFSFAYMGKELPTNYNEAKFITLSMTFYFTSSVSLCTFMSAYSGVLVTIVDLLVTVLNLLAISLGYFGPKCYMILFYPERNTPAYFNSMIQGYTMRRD
T1 sequence (Q7RTX0 21-852 C757R): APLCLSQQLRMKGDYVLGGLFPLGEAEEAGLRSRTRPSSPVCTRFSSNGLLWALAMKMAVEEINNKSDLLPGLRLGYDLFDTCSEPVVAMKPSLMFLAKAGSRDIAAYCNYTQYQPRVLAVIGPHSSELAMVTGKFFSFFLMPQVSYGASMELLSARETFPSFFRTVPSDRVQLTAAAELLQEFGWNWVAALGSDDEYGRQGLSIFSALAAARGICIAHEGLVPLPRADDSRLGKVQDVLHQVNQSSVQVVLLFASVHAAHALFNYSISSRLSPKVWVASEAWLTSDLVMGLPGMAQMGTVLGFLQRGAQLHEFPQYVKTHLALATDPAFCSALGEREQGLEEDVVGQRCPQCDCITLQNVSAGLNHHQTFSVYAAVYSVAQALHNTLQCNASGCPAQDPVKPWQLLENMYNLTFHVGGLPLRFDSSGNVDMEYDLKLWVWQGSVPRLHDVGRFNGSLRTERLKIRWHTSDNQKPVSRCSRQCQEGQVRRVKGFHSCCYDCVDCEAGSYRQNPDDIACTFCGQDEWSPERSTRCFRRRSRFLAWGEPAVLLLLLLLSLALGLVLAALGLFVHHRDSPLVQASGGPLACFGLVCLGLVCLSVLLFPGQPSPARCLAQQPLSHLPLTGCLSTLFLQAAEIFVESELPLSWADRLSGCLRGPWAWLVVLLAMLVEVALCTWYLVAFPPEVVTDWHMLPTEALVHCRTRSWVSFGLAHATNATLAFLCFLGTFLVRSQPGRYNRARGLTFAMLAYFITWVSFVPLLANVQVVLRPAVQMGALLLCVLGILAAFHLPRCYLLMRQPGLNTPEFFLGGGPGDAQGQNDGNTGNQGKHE
Description: The HEK293E cells maintained by using the DMEM/Ham's F-12 medium (Nakarai Tesque) containing 10% fetal bovine serum ([sequence]) and 1% Pen Strep (GIBCO) were washed with D-PBS(−) (Nakarai Tesque), and collected from the flask by using 0.25% Trypsin EDTA (GIBCO). The cells were centrifuged (1,200 rpm, 3 minutes), and after the supernatant was removed, suspended in 5% FBS DMEM/Ham's F-12 at a density of 0.75×10^7 cell/ml. This suspension (10 ml) was put into a 150 cm^3 flask (IWAKI), and culture was performed overnight (37° C., 5% CO2).
After the gene transfer, the cells were washed with D-PBS(−), then removed from the flask by using 0.25% Trypsin EDTA (GIBCO), and collected. […] This cell suspension was put into wells of D-Lysine coat 96-well plate (BD bioscience) in such a volume that the cell count is 7.0×10^4 cells/well, and the cells were cultured overnight.
After the culture, all the medium of the 96 wells were discarded. […] After the staining, 50 μl of a solution of stimulant (sweet taste substance) prepared with the assay buffer was added to each well, and the fluorescence value was measured for 120 seconds after the stimulation by using FDSSμEELL (Hamamatsu Photonics). […] The measurement and analysis of the fluorescence value was performed by using the software attached to FDSSμEELL (FDSS7000EX), and ΔF/F value was calculated in accordance with the following equation, and used for the evaluation. ΔF/F=(Maximum fluorescence value after stimulation−Minimum fluorescence value after stimulation)/(Fluorescence value before stimulation)
Furthermore, by using the ΔF/F values obtained when each sweet taste substance was added, the S/N ratio was calculated. Specifically, the S/N value was calculated by using the minimum value of ΔF/F obtained when each substance was added at various concentrations as noise (N) value, and the similarly obtained maximum value of ΔF/F as the signal (S) value, and used as an index for sensitivity of the measurement of the activity of each receptor.

[2] = biological target: T2, hT1R2/mT1R3 (UniProt Q8TE23+Q925D8); test: Intracellular calcium assay (ΔF/F, S/N ratio) in HEK293E cells expressing hT1R2 and mT1R3 with Gα15-trans48LD; assay type: cell-based, human/mouse
T2 construct: expressed in transfected cells; host or cells: HEK293E
T2 sequence (Q8TE23 20-839): T1 sequence (Q8TE23 20-839)
T2 sequence (Q925D8 21-858): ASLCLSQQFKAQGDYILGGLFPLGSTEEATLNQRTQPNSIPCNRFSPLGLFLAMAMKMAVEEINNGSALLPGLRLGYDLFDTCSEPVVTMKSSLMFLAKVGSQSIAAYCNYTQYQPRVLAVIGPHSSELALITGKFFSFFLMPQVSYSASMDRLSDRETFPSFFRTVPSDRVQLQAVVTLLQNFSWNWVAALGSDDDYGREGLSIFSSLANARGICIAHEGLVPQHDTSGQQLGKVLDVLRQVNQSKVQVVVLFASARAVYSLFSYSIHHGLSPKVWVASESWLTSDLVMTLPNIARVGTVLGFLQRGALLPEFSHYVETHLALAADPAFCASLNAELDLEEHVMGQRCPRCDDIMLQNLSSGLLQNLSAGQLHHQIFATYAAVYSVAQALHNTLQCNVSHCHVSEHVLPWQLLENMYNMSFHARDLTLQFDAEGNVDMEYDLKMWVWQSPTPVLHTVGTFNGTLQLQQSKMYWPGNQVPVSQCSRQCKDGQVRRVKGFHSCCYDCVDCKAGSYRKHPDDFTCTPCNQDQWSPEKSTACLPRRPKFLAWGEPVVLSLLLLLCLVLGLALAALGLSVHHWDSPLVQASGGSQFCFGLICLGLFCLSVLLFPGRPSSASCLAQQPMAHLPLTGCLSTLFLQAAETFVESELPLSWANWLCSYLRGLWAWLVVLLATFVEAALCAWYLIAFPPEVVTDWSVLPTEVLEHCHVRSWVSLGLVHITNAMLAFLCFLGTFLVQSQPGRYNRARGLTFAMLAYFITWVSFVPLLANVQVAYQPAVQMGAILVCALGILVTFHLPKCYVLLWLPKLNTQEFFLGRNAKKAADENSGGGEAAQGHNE
Description: The HEK293E cells maintained by using the DMEM/Ham's F-12 medium (Nakarai Tesque) containing 10% fetal bovine serum ([sequence]) and 1% Pen Strep (GIBCO) were washed with D-PBS(−) (Nakarai Tesque), and collected from the flask by using 0.25% Trypsin EDTA (GIBCO). The cells were centrifuged (1,200 rpm, 3 minutes), and after the supernatant was removed, suspended in 5% FBS DMEM/Ham's F-12 at a density of 0.75×10^7 cell/ml. This suspension (10 ml) was put into a 150 cm^3 flask (IWAKI), and culture was performed overnight (37° C., 5% CO2). On the next day, the medium was exchanged with Opti-MEM (30 ml, Invitrogen, Life Technologies), a sweet taste receptor gene mixture (Gα15-trans48LD gene, various kinds of T1R2 chimeric genes, and various kinds of T1R3 chimeric genes, 63.8 μg in total) prepared by using Opti-MEM and Lipofectamin 2000 (Invitrogen, Life Technologies) was slowly added to the cell suspension, and incubation was performed (37° C., 5% CO2) for 6 hours to attain gene transfer.
After the gene transfer, the cells were washed with D-PBS(−), then removed from the flask by using 0.25% Trypsin EDTA (GIBCO), and collected. After the cell number was counted, the cells were suspended in the 5% FBS DMEM medium (2.78 mM glucose, GIBCO) at a density of 0.5×10^6 cell/ml. This cell suspension was put into wells of D-Lysine coat 96-well plate (BD bioscience) in such a volume that the cell count is 7.0×10^4 cells/well, and the cells were cultured overnight.
After the culture, all the medium of the 96 wells were discarded. 200 μl of the staining solution for measurement of intracellular calcium ion′ Calcium Assay Kit Express (Molecular Device), diluted 80 times with an assay buffer (20 mM HEPES, 146 mM NaCl, 1 mM MgSO4, 1.39 mM glucose, 1 mM CaC12, 2.5 mM Probenecid, 0.05% bovine serum albumin) was added to each well, and the plate was left standing at 37° C. for 30 minutes and at room temperature for 45 minutes to perform staining. After the staining, 50 μl of a solution of stimulant (sweet taste substance) prepared with the assay buffer was added to each well, and the fluorescence value was measured for 120 seconds after the stimulation by using FDSSμEELL (Hamamatsu Photonics). By measuring the fluorescence value (Ex. 480 nm, Em. 540 nm) before and after the stimulation, the change of the intracellular free calcium ion concentration caused by addition of the stimulant via a sweet taste receptor was quantitatively investigated. The measurement and analysis of the fluorescence value was performed by using the software attached to FDSSμEELL (FDSS7000EX), and ΔF/F value was calculated in accordance with the following equation, and used for the evaluation. ΔF/F=(Maximum fluorescence value after stimulation−Minimum fluorescence value after stimulation)/(Fluorescence value before stimulation)
Furthermore, by using the ΔF/F values obtained when each sweet taste substance was added, the S/N ratio was calculated. Specifically, the S/N value was calculated by using the minimum value of ΔF/F obtained when each substance was added at various concentrations as noise (N) value, and the similarly obtained maximum value of ΔF/F as the signal (S) value, and used as an index for sensitivity of the measurement of the activity of each receptor. That is, a higher S/N value means a higher sensitivity for detection of an interaction of a sweet taste receptor and a test substance, which makes it easier to detect stimulation with a sweet taste substance or sweet taste-regulating substance of a lower concentration.

[3] = Table 3, genes hT2/hT3 (hT1R2, hT1R3), max ΔF/F over min ΔF/F across concentrations
[4] = Table 4, genes hT2/hT3 (hT1R2, hT1R3)
[5] = Table 5, genes hT2/hT3 (hT1R2, hT1R3)
[6] = Table 6, genes hT2/hT3 (hT1R2, hT1Rm3)
[7] = Table 3, genes hT2/mT3 (hT1R2, mT1R3)
[8] = Table 4, genes hT2/mT3 (hT1R2, mT1R3)

In the case of `COC(=O)[C@H](Cc1ccccc1)NC(=O)[C@H](CC(=O)O)NCCC(C)(C)C` [Neotame, neotame], the S/N [1, 3] is reported as 2.9, the S/N [1, 4] is reported as 2.9 and the S/N [1, 5] is reported as 2.9. The S/N [1, 6] was 2.9, the S/N [2, 7] was 3.4 and the S/N [2, 8] was 3.4.
With `COC(=O)[C@H](Cc1ccccc1)NC(=O)[C@H](CC(=O)O)NCCCc1ccc(OC)c(O)c1` [Advantame, advantame] the S/N [1, 3] was 3.2, the S/N [1, 4] was 3.2 and the S/N [1, 5] was 3.2. The S/N [1, 6] was 3.2, the S/N [2, 7] was 4.6 and the S/N [2, 8] was 4.6.
Work on `OC[C@H]1O[C@@](CO)(O[C@H]2O[C@H](CO)[C@@H](O)[C@H](O)[C@H]2O)[C@@H](O)[C@@H]1O` [Sucrose, sucrose] yielded a S/N [1, 3] of 1.9, a S/N [1, 4] of 1.9 and a S/N [1, 5] of 1.9. It also gave a S/N [1, 6] of 1.9, a S/N [2, 7] of 2.4 and a S/N [2, 8] of 2.4.
In the case of `COC(=O)[C@H](Cc1ccccc1)NC(=O)[C@@H](N)CC(=O)O` [Aspartame, aspartame] (HELM PEPTIDE1{D.F.[CO[*:1]]}$$$$V2.0), the S/N [1, 3] is reported as 1.6, the S/N [1, 4] is reported as 1.6 and the S/N [1, 5] is reported as 1.6. The S/N [1, 6] was 1.6, the S/N [2, 7] was 2.3 and the S/N [2, 8] was 2.3.
`O=C1NS(=O)(=O)c2ccccc21.[Na]` [Saccharin Na, sodium saccharin] gave a S/N [1, 3] of 2.5, a S/N [1, 4] of 2.5 and a S/N [1, 5] of 2.5. The S/N [1, 6] was 2.5, the S/N [2, 7] was 2.8 and the S/N [2, 8] was 2.8.
Work on `C[C@H](NC(=Nc1ccc(C#N)cc1)NCC(=O)O)c1ccccc1` [SC-45647, [3-[(S)-1-phenylethyl]-2-(4-cyanophenyl)guanidino]acetic acid] yielded a S/N [1, 3] of 3.0, a S/N [1, 4] of 3.0 and a S/N [1, 5] of 3.0. It also gave a S/N [1, 6] of 3.0, a S/N [2, 7] of 3.9 and a S/N [2, 8] of 3.9.
In the case of `OC[C@H]1O[C@H](O[C@]2(CCl)O[C@H](CCl)[C@@H](O)[C@@H]2O)[C@H](O)[C@@H](O)[C@H]1Cl` [Sucralose, sucralose], the S/N [1, 3] is reported as 3.3, the S/N [1, 4] is reported as 3.3 and the S/N [1, 5] is reported as 3.3. The S/N [1, 6] was 3.3, the S/N [2, 7] was 4.0 and the S/N [2, 8] was 4.0.
`COc1ccc(CCC(=O)c2c(O)cc(O[C@@H]3O[C@H](CO)[C@@H](O)[C@H](O)[C@H]3O[C@@H]3O[C@@H](C)[C@H](O)[C@@H](O)[C@H]3O)cc2O)cc1O` [NHDC, neohesperidin dihydrochalcone] showed a S/N [1, 5] of 2.0 and a S/N [1, 6] of 2.0.
`CC1=CC(=O)NS(=O)(=O)O1` [Acesulfame K, acesulfame potassium] was tested, and the S/N [1, 3] was 1.9, the S/N [1, 4] was 1.9 and the S/N [1, 5] was 1.9. The S/N [1, 6] was 1.9, the S/N [2, 7] was 2.4 and the S/N [2, 8] was 2.4.
